Read-outs that look alike come from different tables or passages of the source. Marks after values point to notes of the source that are not given here.
Columns and labels:
[1] = system: ER+/HER2− locally advanced or metastatic breast cancer; experiment: FIH Study Part A: clinical activity (CBR, ORR); type: in vivo, human
Source text: Based on a 6 Jun. 2023 data cut-off, evidence of preliminary clinical activity was observed, as assessed by CBR and ORR, in the monotherapy Part A dose escalation cohort of the FIH Study.
Per protocol, the CBR evaluable analysis set included all treated patients who were enrolled at least 24 weeks prior to the data cut-off of analysis. CBR was defined as a confirmed CR or PR per RECIST v1.1 or SD with a minimum duration of 24 weeks.
Per protocol, the response-evaluable analysis set included all treated patients who had measurable disease at baseline and ORR was based on confirmed responses per RECIST v1.1.

[2] = system: ER+/HER2− locally advanced/metastatic breast cancer; experiment: FIH Study Part B (VERITAC): clinical benefit rate, PFS; type: in vivo, human
Source text: The primary endpoint was clinical benefit rate (CBR; rate of confirmed complete or partial response or stable disease ≥24 weeks).

[3] = system: ER; experiment: ER expression in paired tumor biopsies (FIH Part A); type: in vivo, human; settings: 14 paired biopsies, doses up to 500 mg QD, WT or mutant ER
[4] = Clinical Pharmacology Study PPI (esomeprazole) cohort: single-dose PK; type: in vivo, human; settings: 200 mg
Source text: Study Design: The Clinical Pharmacology Study consists of 3 independent cohorts: 1) an open-label, randomized, 2-period, crossover Fed/Fasted cohort to determine food effects; 2) an open-label, 2-period, fixed sequence PPI cohort to evaluate interactions with esomeprazole; and 3) an open-label, randomized, 2 period, crossover rBA cohort to evaluate 2 tablet formulations.

[5] = target: Aiolos (Homo sapiens, UniProt Q9UKT9); experiment: Cereblon neomorphic substrate degradation, Aiolos; type: cell-based; settings: in vitro
Chain of Aiolos (Q96SW2 whole entry partner): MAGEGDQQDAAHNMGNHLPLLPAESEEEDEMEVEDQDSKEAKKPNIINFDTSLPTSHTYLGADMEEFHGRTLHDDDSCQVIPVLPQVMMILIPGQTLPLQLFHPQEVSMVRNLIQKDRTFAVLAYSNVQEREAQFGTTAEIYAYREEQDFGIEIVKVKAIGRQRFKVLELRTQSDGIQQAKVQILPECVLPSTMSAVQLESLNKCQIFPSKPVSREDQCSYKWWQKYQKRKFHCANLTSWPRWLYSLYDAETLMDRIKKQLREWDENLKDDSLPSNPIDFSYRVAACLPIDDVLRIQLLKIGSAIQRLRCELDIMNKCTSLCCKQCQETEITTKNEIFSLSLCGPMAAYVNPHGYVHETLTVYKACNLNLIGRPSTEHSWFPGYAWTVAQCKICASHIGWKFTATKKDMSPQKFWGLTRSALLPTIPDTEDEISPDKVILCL
Chain of Aiolos (Q16531 whole entry partner): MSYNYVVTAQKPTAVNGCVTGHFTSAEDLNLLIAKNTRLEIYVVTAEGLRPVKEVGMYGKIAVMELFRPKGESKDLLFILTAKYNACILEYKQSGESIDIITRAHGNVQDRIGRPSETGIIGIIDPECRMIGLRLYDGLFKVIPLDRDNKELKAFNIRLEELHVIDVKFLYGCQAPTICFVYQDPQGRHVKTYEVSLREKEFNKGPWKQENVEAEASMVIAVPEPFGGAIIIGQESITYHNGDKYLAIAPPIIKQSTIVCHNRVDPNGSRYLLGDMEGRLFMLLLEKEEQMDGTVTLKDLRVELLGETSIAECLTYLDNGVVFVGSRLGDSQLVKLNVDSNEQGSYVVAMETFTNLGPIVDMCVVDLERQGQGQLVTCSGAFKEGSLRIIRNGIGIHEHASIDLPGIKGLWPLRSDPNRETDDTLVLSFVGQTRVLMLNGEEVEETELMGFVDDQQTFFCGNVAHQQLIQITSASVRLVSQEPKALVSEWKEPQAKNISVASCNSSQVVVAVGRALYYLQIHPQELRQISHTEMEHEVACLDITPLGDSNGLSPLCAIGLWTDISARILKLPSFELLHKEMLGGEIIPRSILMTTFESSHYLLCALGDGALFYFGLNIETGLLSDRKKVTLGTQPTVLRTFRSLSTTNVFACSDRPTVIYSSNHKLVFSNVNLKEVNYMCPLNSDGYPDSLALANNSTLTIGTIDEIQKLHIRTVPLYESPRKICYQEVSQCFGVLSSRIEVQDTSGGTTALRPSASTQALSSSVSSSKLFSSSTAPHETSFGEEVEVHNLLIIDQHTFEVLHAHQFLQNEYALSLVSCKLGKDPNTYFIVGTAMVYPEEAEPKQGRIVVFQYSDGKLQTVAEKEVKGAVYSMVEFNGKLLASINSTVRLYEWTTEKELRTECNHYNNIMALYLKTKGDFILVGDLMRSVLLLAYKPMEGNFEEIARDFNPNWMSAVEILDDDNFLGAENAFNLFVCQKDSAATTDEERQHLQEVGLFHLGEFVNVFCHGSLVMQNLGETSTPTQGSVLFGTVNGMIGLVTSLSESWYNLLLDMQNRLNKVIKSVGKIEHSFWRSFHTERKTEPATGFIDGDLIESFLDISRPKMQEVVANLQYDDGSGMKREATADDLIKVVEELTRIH
Chain of Aiolos (Q9UKT9 whole entry): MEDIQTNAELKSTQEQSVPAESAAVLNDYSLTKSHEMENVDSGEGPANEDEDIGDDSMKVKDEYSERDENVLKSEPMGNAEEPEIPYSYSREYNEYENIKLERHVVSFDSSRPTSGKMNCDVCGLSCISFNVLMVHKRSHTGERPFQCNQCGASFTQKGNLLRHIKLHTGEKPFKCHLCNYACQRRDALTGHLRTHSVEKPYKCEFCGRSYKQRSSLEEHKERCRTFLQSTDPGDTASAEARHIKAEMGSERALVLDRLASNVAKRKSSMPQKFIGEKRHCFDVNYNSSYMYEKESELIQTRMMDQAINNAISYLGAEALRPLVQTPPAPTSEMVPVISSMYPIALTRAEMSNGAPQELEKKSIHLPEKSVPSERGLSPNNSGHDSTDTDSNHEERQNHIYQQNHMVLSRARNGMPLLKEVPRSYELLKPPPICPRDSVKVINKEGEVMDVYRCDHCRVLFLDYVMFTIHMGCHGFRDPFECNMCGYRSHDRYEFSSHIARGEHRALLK
Source text: (§1) These drugs bind to cereblon and promote the degradation of novel (neomorphic) substrates.

[6] = target: GSPT1 (Homo sapiens, UniProt P15170); experiment: Cereblon neomorphic substrate degradation, GSPT1; type: cell-based; settings: in vitro
Chain of GSPT1 (Q96SW2 whole entry partner, species assumed): as the sequence (Q96SW2 whole entry partner) above
Chain of GSPT1 (Q16531 whole entry partner, species assumed): as the sequence (Q16531 whole entry partner) above
Chain of GSPT1 (P15170 whole entry, species assumed): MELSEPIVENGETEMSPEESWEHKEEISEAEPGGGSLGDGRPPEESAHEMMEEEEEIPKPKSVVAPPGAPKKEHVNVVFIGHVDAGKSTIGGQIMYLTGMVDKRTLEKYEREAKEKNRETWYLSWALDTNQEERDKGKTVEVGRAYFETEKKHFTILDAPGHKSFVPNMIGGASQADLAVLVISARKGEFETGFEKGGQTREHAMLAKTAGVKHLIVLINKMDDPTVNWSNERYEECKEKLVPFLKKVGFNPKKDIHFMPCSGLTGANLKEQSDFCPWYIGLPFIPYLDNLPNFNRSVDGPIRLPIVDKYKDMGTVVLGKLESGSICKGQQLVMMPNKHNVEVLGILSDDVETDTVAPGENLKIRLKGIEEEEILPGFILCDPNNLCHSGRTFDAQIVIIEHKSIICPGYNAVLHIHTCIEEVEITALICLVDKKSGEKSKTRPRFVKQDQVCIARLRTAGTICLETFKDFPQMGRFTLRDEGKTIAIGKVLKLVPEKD
Source text: as §1

[7] = 7-day oral dose range finding toxicity study in rats; type: in vivo; settings: rat, up to 300 mg/kg/day, 7 days
Source text: Noteworthy findings were changes in the female reproductive organs, including in the ovaries (minimal to moderate increased size of tertiary follicles, retained corpora lutea, and minimal to moderate interstitial cell hypertrophy), uterus (atrophy) and vagina (mucosa atrophy).

[8] = 28-day GLP oral toxicity study in dogs; type: in vivo; settings: dog
Source text: There were no mortalities and no Compound A-related clinical observations, changes in BW or food consumption or ophthalmic observations. There were no ARV-471-related ECG abnormalities observed, including no effects on PR-interval, QRS duration, QT or QTc intervals, or heart rate and no arrhythmias or abnormal waveforms.

[9] = Caco-2 bidirectional permeability; type: in vitro ADME; settings: human, Caco-2, 1.125 pM
[10] = system: Caco-2 cells; experiment: Caco-2 bidirectional permeability; type: in vitro ADME; settings: 11.25 μM
[11] = human, in vivo
Method: Study Design: In the FIH Study: Part A is a Phase I monotherapy dose escalation, and Part B is a Phase 2 monotherapy expansion at 2 RP2D doses (200 mg QD, 500 mg QD).

[12] = target: T1, ER (Homo sapiens, UniProt P03372); experiment: Tumor ER levels in MCF7 xenograft; type: in vivo, mouse; design: from tissue; host or cells: MCF7/estradiol xenograft tumour in mice; settings: all doses (3, 10, 30 mg/kg), study termination
T1 sequence (P03372 1-595): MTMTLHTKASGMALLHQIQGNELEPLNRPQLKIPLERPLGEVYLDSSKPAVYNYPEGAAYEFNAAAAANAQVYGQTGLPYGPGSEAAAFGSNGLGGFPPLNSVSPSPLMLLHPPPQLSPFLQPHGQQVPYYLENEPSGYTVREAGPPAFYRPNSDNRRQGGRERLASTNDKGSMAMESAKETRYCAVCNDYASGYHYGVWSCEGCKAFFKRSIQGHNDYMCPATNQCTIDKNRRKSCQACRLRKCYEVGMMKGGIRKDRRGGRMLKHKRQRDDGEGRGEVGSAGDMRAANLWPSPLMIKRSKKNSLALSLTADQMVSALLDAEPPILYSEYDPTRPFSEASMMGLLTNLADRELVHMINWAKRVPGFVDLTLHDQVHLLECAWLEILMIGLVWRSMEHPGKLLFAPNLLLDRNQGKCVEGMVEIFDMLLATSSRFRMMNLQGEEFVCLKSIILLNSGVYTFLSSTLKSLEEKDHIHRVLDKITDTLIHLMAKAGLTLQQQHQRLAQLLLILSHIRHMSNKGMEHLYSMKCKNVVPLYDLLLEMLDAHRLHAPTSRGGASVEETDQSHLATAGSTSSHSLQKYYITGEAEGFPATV
Method: The 30 mg/kg dose was associated with a mean AUC0-24 of 5,717 ng·h/mL. The tumor ER levels were reduced by ≥94% at all doses compared to mice administered vehicle only (FIG. 3B).
The 30 mg/kg dose was associated with a mean AUC0-24 of 5,717 ng·h/mL.

O=C1CC[C@H](N2Cc3cc(N4CCN(CC5CCN(c6ccc([C@@H]7c8ccc(O)cc8CC[C@@H]7c7ccccc7)cc6)CC5)CC4)ccc3C2=O)C(=O)N1 [Compound A, (S)-3-(5-(4-((1-(4-((1R,2S)-6-hydroxy-2-phenyl-1,2,3,4-tetrahydronaphthalen-1-yl)phenyl)piperidin-4-yl)methyl)piperazin-1-yl)-1-oxoisoindolin-2-yl)piperidine-2,6-dione]
ORR ([1]; 7 of 61 response-evaluable, confirmed PR, 95% CI 4.7%, 22.2%): 11.5%
CBR ([1]; 30 of 83 evaluable patients, 95% CI 25.9%, 47.4%, cut-off 6 Jun 2023): 36.1%
CBR ([1]; Phase 1, ESR1-mutant tumors): 50%
CBR ([1]; Phase 1, all patients): 40%
CBR ([2]; 200 mg QD, WT PIK3CA n=20, 95% CI 19-64): 40.0%
CBR ([2]; 200 mg QD, all evaluable n=35, Nov. 1, 2022, 95% CI 21-55): 37.1%
CBR ([2]; 200 mg QD, mutant ESR1 n=19, Nov. 1, 2022, 95% CI 24-71): 47.4%
CBR ([2]; 200 mg QD, mutant PIK3CA n=15, 95% CI 12-62): 33.3%
CBR ([2]; ITT (n=71)): 38%
CBR ([2]; ITT ESR1m (n=41)): 51.2%
PFS ([2]; ITT ESR1m (n=41)): 5.7 months
CBR ([2]; no prior fulvestrant or chemotherapy in metastatic setting (n=8)): 62.5%
CBR ([2]; patients with WT ESR1 (n=25)): 20%
ER degradation, median decrease [3]: 67%
AUC with PPI vs without PPI [4]: similar
decrease of median Cmax by PPI [4]: about 18%
decrease of AUCinf by multiple doses of esomeprazole 40 mg ([4]; moderate-fat meal): 11%
decrease of Cmax by multiple doses of esomeprazole 40 mg ([4]; moderate-fat meal): 17.1%
degradation of Aiolos [5]: did not degrade
degradation of GSPT1 [6]: did not degrade
tolerability [7]: well tolerated
ECG evaluations ([8]; 28 days, up to 90 mg/kg/day): did not elicit any changes in ECG evaluations
NOAEL at 28 days ([8]; in vivo, 28 days oral): 90 mg/kg/day
Papp A→B at 1.125 pM ([9]; read-out: permeability apical to basolateral): 1.33 ×10⁻⁶ cm/s
Papp B→A at 1.125 pM ([9]; read-out: permeability basolateral to apical): 0.08 ×10⁻⁶ cm/s
bidirectional permeability [10]: Similarly low bidirectional permeability
CL/F ([11]; 30 mg): 7.4 L/h
Rac (AUCtau) ([11]; 30 mg): 2.6
CL/F ([11]; 60 mg): 8.2 L/h
Rac (AUCtau) ([11]; 60 mg): 2.6
Tmax ([11]; 60 mg): 4.2 h
CL/F ([11]; 100 mg): 11.2 L/h
Rac (AUCtau) ([11]; 100 mg): 2.1
CL/F ([11]; 120 mg): 8.8 L/h
Cmax ([11]; 120 mg): 799 ng/mL
Rac (AUCtau) ([11]; 120 mg): 2.2
CL/F ([11]; 180 mg): 9.4 L/h
Cmax ([11]; 180 mg): 1062 ng/mL
Rac (AUCtau) ([11]; 180 mg): 2.3
Tmax ([11]; 180 mg): 5.0 h
AUCtau ([11]; 200 mg): 15459 ng·h/mL
CL/F ([11]; 200 mg): 12.9 L/h
Cmax ([11]; 200 mg): 866 ng/mL
Rac (AUCtau) ([11]; 200 mg): 1.9
Tmax ([11]; 200 mg): 5.0 h
CL/F ([11]; 250 mg): 12.2 L/h
CL/F ([11]; 360 mg): 13.9 L/h
Rac (AUCtau) ([11]; 360 mg): 2.2
CL/F ([11]; 500 mg): 14.5 L/h
Cmax ([11]; 500 mg): 1883 ng/mL
Rac (AUCtau) ([11]; 500 mg): 2.2
AUCtau ([11]; 700 mg): 26572 ^e ng·h/mL
Cmax ([11]; 700 mg): 1530 ^e ng/mL
Rac (AUCtau) ([11]; 700 mg): 1, 4 ^g
Tmax ([11]; 700 mg): 6.0 g·h
tumor ER levels reduced vs vehicle [12]: ≥ 94%
